Data taken from patent US20260053811A1, “METHODS OF TREATING HYPERTENSION IN OBESE SUBJECTS” (Mineralys Therapeutics, Inc., priority 2022, published 2026).

System: hypertensive subjects
Assay: Seated automated office blood pressure (AOBP) in randomized, placebo-controlled, dose-ranging study
Type: in vivo, human
Conditions: Part 1
Method: A randomized, double-blinded, placebo-controlled, dose-ranging, multicenter study was conducted to evaluate the effect of orally administered Compound A HBr on blood pressure for the treatment of hypertension in male and female subjects ≥18 years of age.
The study consists of two parts. For enrollment into Part 1 of the study, a subject's value of plasma renin activity (PRA) must be ≤1 ng/mL/h based on morning measurement. If the value of PRA >1 ng/mL/h based on morning measurement, then subjects may be eligible to enter Part 2 of the study.
For Part 1, 163 enrolled subjects ≥18 years of age were randomized into 6 equal treatment groups (1:1:1:1:1:1) to 12.5 mg BID, 25 mg BID, 12.5 mg QD, 50 mg QD, 100 mg QD, or placebo. After a review of interim clinical data, the 2 lowest dose levels (12.5 mg QD and 12.5 mg BID) were stopped for future randomization due to a lack of consistent meaningful reduction of blood pressure, but the patients randomized to that point remained in the study through completion. Thus, after the review of interim clinical data, subjects were randomized into 4 equal treatment groups (1:1:1:1) to 25 mg BID, 50 mg QD, 100 mg QD, or placebo.
For Part 2, 36 enrolled subjects ≥18 years of age were randomized (5:1) to either 100 mg QD Compound A HBr or placebo such that the Compound A HBr treatment group consisted of approximately 30 subjects and the placebo treatment group will consist of approximately 6 subjects.
Subjects orally administered the assigned study drug (Compound A HBr or placebo) according to the assigned dosing regimen for 8 weeks beginning on Study Day 1. All subjects in Part 1 (regardless of dosing group) received BID dosing to preserve the integrity of the blind; active drug is administered as the morning dose for all QD dose groups. Subjects returned to the research facility or were seen by the clinical investigator or approved home health care professional at the end of Study Weeks 1, 2, 3, 4, 5, 6, 7, and 8 (±2 days) for protocol-defined efficacy and safety assessments and procedures, assessment of adverse events (AEs), and confirmation of compliance with study drug usage. Subjects also completed a telephone visit and blood pressure (BP) check at home approximately 3 days post last dose of study drug. Subjects attended up to 14 full clinic visits, including a pre-Screening visit, a Screening/start of Placebo Run-in visit, a second visit during Placebo Run-in, a clinic visit to initiate the ABPM procedure, a Randomization visit, 8 weekly visits during double-blind treatment, and an end-of-study visit scheduled 4 weeks after the last study treatment for final efficacy and safety assessments.
An automated oscillometric sphygmomanometer device was used to measure the subjects' systolic and diastolic blood pressure in office after approximately 5 minutes of rest in the seated position.
The primary endpoint is the change in office-measured (mean of last 2 of 5 unattended measurements using an automated oscillometric sphygmomanometer device after approximately 5 minutes of rest in the seated position) systolic blood pressure (SBP) from baseline to the end of Study Week 8.
Secondary endpoints of this study were: • (a) Change in 24-hour ambulatory blood pressure monitoring (ABPM) parameters (systolic and diastolic) from baseline to the end of Study Week 7. • (b) Change in office-measured SBP from baseline to the end of Study Weeks 1, 2, 3, 4, 5, 6, and 7. • (c) Change in office-measured diastolic blood pressure (DBP) from baseline to the end of Study Weeks 1, 2, 3, 4, 5, 6, 7, and 8. • (d) Proportion of subjects who achieve office-measured BP of ≤130/80 mm Hg by the end of Study Week 8.

[1] = 12.5 mg QD, Systolic Blood Pressure Tertile at Baseline Low
[2] = 12.5 mg QD, Systolic Blood Pressure Tertile at Baseline Middle
[3] = 12.5 mg QD, Thiazide Diuretic Use at Baseline No
[4] = 12.5 mg QD, Thiazide Diuretic Use at Baseline Yes

SMILES: CC(=O)N[C@H]1CC[C@H](NC(=O)CN2CCN(c3nncc(-c4ccc(C)cc4)n3)CC2)CC1 [Compound A HBr]
- Mean (SD) Change from Baseline at Week 8 in Automated Office-Measured Systolic Blood Pressure (12.5 mg QD, Systolic Blood Pressure Tertile at Baseline High): −10.83 (23.91) mmHg
- Mean (SD) Automated Office-Measured Systolic Blood Pressure at Wk 8 [1]: 131.17 (12.77) mmHg
- Mean (SD) Change from Baseline at Week 8 in Automated Office-Measured Systolic Blood Pressure [1]: −3.75 (13.24) mmHg
- Mean (SD) Automated Office-Measured Systolic Blood Pressure at Wk 8 [2]: 143.33 (22.23) mmHg
- Mean (SD) Change from Baseline at Week 8 in Automated Office-Measured Systolic Blood Pressure [2]: −1.17 (21.80) mmHg
- Automated Office-Measured Diastolic Blood Pressure, Week 8, Mean (SD) [3]: 88.11 (21.40) mmHg
- Mean (SD) Automated Office-Measured Systolic Blood Pressure at Wk 8 [3]: 149.11 (26.02) mmHg
- Mean (SD) Change from Baseline at Week 8 in Automated Office-Measured Diastolic Blood Pressure [3]: 1.56 (17.70) mmHg
- Mean (SD) Change from Baseline at Week 8 in Automated Office-Measured Systolic Blood Pressure [3]: −5.83 (25.10) mmHg
- Automated Office-Measured Diastolic Blood Pressure, Week 8, Mean (SD) [4]: 74.78 (8.58) mmHg
- Mean (SD) Automated Office-Measured Systolic Blood Pressure at Wk 8 [4]: 132.44 (14.02) mmHg
- Mean (SD) Change from Baseline at Week 8 in Automated Office-Measured Diastolic Blood Pressure [4]: −5.11 (6.26) mmHg
- Mean (SD) Change from Baseline at Week 8 in Automated Office-Measured Systolic Blood Pressure [4]: −7.89 (14.31) mmHg
- Mean (SD) Automated Office-Measured Systolic Blood Pressure at Wk 8 (25 mg BID, ACEi/ARB No): 123.67 (28.36) mmHg
- Mean (SD) Change from Baseline at Week 8 in Automated Office-Measured Systolic Blood Pressure (25 mg BID, ACEi/ARB No): −19.17 (12.25) mmHg
- Mean (SD) Automated Office-Measured Systolic Blood Pressure at Wk 8 (25 mg BID, ACEi/ARB Yes): 132.20 (15.32) mmHg
- Mean (SD) Change from Baseline at Week 8 in Automated Office-Measured Systolic Blood Pressure (25 mg BID, ACEi/ARB Yes): −9.04 (14.04) mmHg
- Mean (SD) Automated Office-Measured Diastolic Blood Pressure at Wk 8 (25 mg BID, ACEi/ARBs No): 68.67 (8.33) mmHg
- Mean (SD) Change from Baseline at Week 8 in Automated Office-Measured Diastolic Blood Pressure (25 mg BID, ACEi/ARBs No): −10.33 (13.25) mmHg
- Mean (SD) Automated Office-Measured Diastolic Blood Pressure at Wk 8 (25 mg BID, ACEi/ARBs Yes): 76.24 (13.40) mmHg
- Mean (SD) Change from Baseline at Week 8 in Automated Office-Measured Diastolic Blood Pressure (25 mg BID, ACEi/ARBs Yes): −2.88 (11.56) mmHg
- Mean (SD) Automated Office-Measured Diastolic Blood Pressure at Wk 8 (25 mg BID, AHTs 2): 79.31 (15.91) mmHg
- Mean (SD) Automated Office-Measured Systolic Blood Pressure at Wk 8 (25 mg BID, AHTs 2): 136.92 (18.45) mmHg
- Mean (SD) Change from Baseline at Week 8 in Automated Office-Measured Diastolic Blood Pressure (25 mg BID, AHTs 2): −2.12 (15.46) mmHg
- Mean (SD) Change from Baseline at Week 8 in Automated Office-Measured Systolic Blood Pressure (25 mg BID, AHTs 2): −6.15 (13.68) mmHg
- Mean (SD) Automated Office-Measured Diastolic Blood Pressure at Wk 8 (25 mg BID, AHTs ≥3): 72.07 (9.26) mmHg
- Mean (SD) Automated Office-Measured Systolic Blood Pressure at Wk 8 (25 mg BID, AHTs ≥3): 126.40 (13.57) mmHg
- Mean (SD) Change from Baseline at Week 8 in Automated Office-Measured Diastolic Blood Pressure (25 mg BID, AHTs ≥3): −5.03 (7.45) mmHg
- Mean (SD) Change from Baseline at Week 8 in Automated Office-Measured Systolic Blood Pressure (25 mg BID, AHTs ≥3): −13.57 (13.83) mmHg
- Mean (SD) Automated Office-Measured Diastolic Blood Pressure at Wk 8 (25 mg BID, Age 65-79 yr): 74.71 (17.26) mmHg
- Mean (SD) Automated Office-Measured Systolic Blood Pressure at Wk 8 (25 mg BID, Age 65-79 yr): 133.86 (19.37) mmHg
- Mean (SD) Change from Baseline at Week 8 in Automated Office-Measured Diastolic Blood Pressure (25 mg BID, Age 65-79 yr): −0.46 (14.22) mmHg
- Mean (SD) Change from Baseline at Week 8 in Automated Office-Measured Systolic Blood Pressure (25 mg BID, Age 65-79 yr): −7.82 (14.88) mmHg
- Mean (SD) Automated Office-Measured Diastolic Blood Pressure at Wk 8 (25 mg BID, Age <65 yr): 76.54 (7.57) mmHg
- Mean (SD) Automated Office-Measured Systolic Blood Pressure at Wk 8 (25 mg BID, Age <65 yr): 127.38 (13.07) mmHg
- Mean (SD) Change from Baseline at Week 8 in Automated Office-Measured Diastolic Blood Pressure (25 mg BID, Age <65 yr): −6.69 (8.06) mmHg
- Mean (SD) Change from Baseline at Week 8 in Automated Office-Measured Systolic Blood Pressure (25 mg BID, Age <65 yr): −12.31 (13.78) mmHg
- Mean (SD) Automated Office-Measured Diastolic Blood Pressure at Wk 8 (25 mg BID, Age ≥80 yr): 71.00 (NE) mmHg
- Mean (SD) Automated Office-Measured Systolic Blood Pressure at Wk 8 (25 mg BID, Age ≥80 yr): 146.00 (NE) mmHg
- Mean (SD) Change from Baseline at Week 8 in Automated Office-Measured Diastolic Blood Pressure (25 mg BID, Age ≥80 yr): −9.50 (NE) mmHg
- Mean (SD) Change from Baseline at Week 8 in Automated Office-Measured Systolic Blood Pressure (25 mg BID, Age ≥80 yr): −14.00 (NE) mmHg
- Mean (SD) Automated Office-Measured Diastolic Blood Pressure at Wk 8 (25 mg BID, BMI 25−30 kg/m^2): 78.89 (20.58) mmHg
- Mean (SD) Change from Baseline at Week 8 in Automated Office-Measured Diastolic Blood Pressure (25 mg BID, BMI 25−30 kg/m^2): 1.11 (16.18) mmHg
- Mean (SD) Automated Office-Measured Diastolic Blood Pressure at Wk 8 (25 mg BID, BMI <25 kg/m^2): 69.25 (9.50) mmHg
- Mean (SD) Change from Baseline at Week 8 in Automated Office-Measured Diastolic Blood Pressure (25 mg BID, BMI <25 kg/m^2): −8.25 (7.63) mmHg
- Mean (SD) Automated Office-Measured Diastolic Blood Pressure at Wk 8 (25 mg BID, BMI >30 kg/m^2): 75.00 (6.97) mmHg
